Data set [1] relates to Mycobacterium tuberculosis. The data set is described as follows: Antimycobacterial activity against Mycobacterium tuberculosis H37Rv ATCC 27294 incubated for 5 days by microplate alamar blue assay. Format: functional. As to conditions: H37Rv ATCC 27294, 120 h. (In general: Alamar Blue is a resazurin reagent that responds to reducing activity.)
Data set [2] in a line: Selectivity index, ratio of CC50 for African green monkey Vero cells to MIC for Mycobacterium tuberculosis H37Rv ATCC 27294. In kind it is toxicity, cell-based. The conditions noted are these: read-out: Selectivity Index.
Data set [3] can be described thus: Cytotoxicity against African green monkey Vero cells assessed as reduction in cell viability after 72 hrs by MTT assay. Format: cell-based. As to conditions: chlorocebus sabaeus.

Broadly, the MIC is the lowest concentration that inhibits growth of the organism. The term CC50 denotes the concentration that lowers cell viability or growth by half.

The structures appear in SMILES notation. Converted amounts (≈) assume the structure as drawn.

`Cc1c(C(=O)CSCCNC(=O)[C@@H](N)Cc2ccc(O)cc2)[n+]([O-])c2ccccc2[n+]1[O-]` had an MIC in data set [1] of 25 µg/mL (≈ 54.8 µM).

With `Cc1c(C(=O)CSCCNC(=O)[C@@H](N)C(C)C)[n+]([O-])c2ccccc2[n+]1[O-]`, in data set [1], the MIC came out at 25 µg/mL (≈ 63.7 µM).

With `COc1ccc(SCC(=O)c2c(C)[n+]([O-])c3ccccc3[n+]2[O-])cc1`, the selectivity ratio in data set [2] turned out to be 64. The CC50 at 72 h in data set [3] is 50 µg/mL (≈ 140 µM). Also, in data set [1], the MIC is 0.78 µg/mL (≈ 2.19 µM).

In the case of `COc1ccc(C(=O)NCCSCC(=O)c2c(C)[n+]([O-])c3ccccc3[n+]2[O-])cc1`, in data set [2], the selectivity ratio is > 32. In data set [3], the CC50 at 72 h was > 100 µg/mL. The molecule also showed an MIC in data set [1] of 3.13 µg/mL (≈ 7.32 µM).

For the molecule `Cc1c(C(=O)CSc2nc3ccccc3[nH]2)[n+]([O-])c2ccccc2[n+]1[O-]`, the selectivity ratio in data set [2] is 16. Moreover, the CC50 at 72 h in data set [3] was determined as 100 µg/mL (≈ 273 µM). The lowest concentration to inhibit growth in data set [1] (MIC) was 6.25 µg/mL (≈ 17.1 µM).

In turn, `CC(=O)NCCSCC(=O)c1c(C)[n+]([O-])c2ccccc2[n+]1[O-]` registered an MIC in data set [1] of 50 µg/mL (≈ 149 µM).

`Cc1c(C(=O)CSc2ccc(F)cc2)[n+]([O-])c2ccccc2[n+]1[O-]`: in data set [2], the selectivity ratio is 128. The CC50 at 72 h in data set [3] stood at 50 µg/mL (≈ 145 µM). The same molecule registered an MIC in data set [1] of 0.39 µg/mL (≈ 1.13 µM).

For the molecule `Cc1ccc(SCC(=O)c2c(C)[n+]([O-])c3ccccc3[n+]2[O-])cc1`, the selectivity ratio in data set [2] stood at 64. Further, the cytotoxic concentration (CC50) at 72 h in data set [3] worked out at 50 µg/mL (≈ 147 µM). This molecule yielded an MIC in data set [1] of 0.78 µg/mL (≈ 2.29 µM).

On to `Cc1c(C(=O)CN(C)C2CCCCC2)[n+]([O-])c2ccccc2[n+]1[O-]`, for which the lowest concentration to inhibit growth in data set [1] (MIC) was 50 µg/mL (≈ 152 µM).

`Cc1c(C(=O)CN2CCN(C)CC2)[n+]([O-])c2ccccc2[n+]1[O-]` had an MIC in data set [1] of 50 µg/mL (≈ 158 µM).

Take `Cc1c(C(=O)CN(C)c2ccc(F)cc2)[n+]([O-])c2ccccc2[n+]1[O-]`: the selectivity ratio in data set [2] is > 16. Also, the CC50 at 72 h in data set [3] was > 100 µg/mL. In addition, the MIC in data set [1] came out at 6.25 µg/mL (≈ 18.3 µM).

In the case of `Cc1c(C(=O)CSCCNC(=O)c2ccncc2)[n+]([O-])c2ccccc2[n+]1[O-]`, the CC50 at 72 h in data set [3] amounted to 50 µg/mL (≈ 125 µM). Also, in data set [1], the MIC was 6.25 µg/mL (≈ 15.7 µM).

Turning to `Cc1c(C(=O)CSCCNC(=O)c2cccs2)[n+]([O-])c2ccccc2[n+]1[O-]`, in data set [2], the selectivity ratio is > 16. Also, in data set [3], the CC50 at 72 h is > 100 µg/mL. This molecule also had an MIC in data set [1] of 6.25 µg/mL (≈ 15.5 µM).

Regarding `Cc1c(C(=O)CSCCNC(=O)C2CCCCC2)[n+]([O-])c2ccccc2[n+]1[O-]`, the MIC in data set [1] is 12.5 µg/mL (≈ 31 µM).

`Cc1c(C(=O)CSCCNC(=O)[C@@H](N)Cc2c[nH]c3ccccc23)[n+]([O-])c2ccccc2[n+]1[O-]`: in data set [2], the selectivity ratio was > 16. Besides, the CC50 at 72 h in data set [3] was > 100 µg/mL. In addition, the MIC in data set [1] amounted to 6.25 µg/mL (≈ 13 µM).

In data set [1], `Cc1c(C(=O)CNc2nc3ccccc3[nH]2)[n+]([O-])c2ccccc2[n+]1[O-]` showed an MIC of 12.5 µg/mL (≈ 35.8 µM).

Take `Cc1c(C(=O)CSc2nccs2)[n+]([O-])c2ccccc2[n+]1[O-]`: in data set [2], the selectivity ratio stood at 16. For the same molecule, in data set [3], the CC50 at 72 h came to 50 µg/mL (≈ 150 µM). The same molecule came in with an MIC in data set [1] of 3.13 µg/mL (≈ 9.39 µM).

In data set [1], `Cc1c(C(=O)CN(C)c2ccccc2)[n+]([O-])c2ccccc2[n+]1[O-]` yielded an MIC of 25 µg/mL (≈ 77.3 µM).

As for `Cc1c(C(=O)CSCCNC(=O)c2ccc(F)cc2)[n+]([O-])c2ccccc2[n+]1[O-]`, in data set [2], the selectivity ratio is > 128. For the same molecule, the CC50 at 72 h in data set [3] was > 100 µg/mL. This molecule also registered an MIC in data set [1] of 1.56 µg/mL (≈ 3.76 µM).

For the molecule `Cc1c(C(=O)CSc2nc[nH]n2)[n+]([O-])c2ccccc2[n+]1[O-]`, the selectivity ratio in data set [2] was 128. Further, the CC50 at 72 h in data set [3] worked out at 50 µg/mL (≈ 158 µM). In data set [1], inhibition of growth (MIC) required 0.39 µg/mL (≈ 1.23 µM).

As to `Cc1c(C(=O)CSc2nc3ccccc3o2)[n+]([O-])c2ccccc2[n+]1[O-]`, the selectivity ratio in data set [2] was 16. The half-maximal cytotoxic concentration (CC50) at 72 h in data set [3] amounted to 50 µg/mL (≈ 136 µM). The molecule further displayed an MIC in data set [1] of 3.13 µg/mL (≈ 8.52 µM).

In turn, `Cc1c(C(=O)CNc2nccs2)[n+]([O-])c2ccccc2[n+]1[O-]` registered an MIC in data set [1] of 50 µg/mL (≈ 158 µM).

In turn, `COc1cc(C(=O)NCCSCC(=O)c2c(C)[n+]([O-])c3ccccc3[n+]2[O-])cc(OC)c1OC` came in with an MIC in data set [1] of 25 µg/mL (≈ 51.3 µM).

Turning to `Cc1c(C(=O)CSc2nc3ccccc3s2)[n+]([O-])c2ccccc2[n+]1[O-]`, in data set [2], the selectivity ratio came to 32. Besides, the CC50 at 72 h in data set [3] amounted to 50 µg/mL (≈ 130 µM). In addition, it took 1.56 µg/mL (≈ 4.07 µM) to inhibit growth in data set [1] (MIC).

Consider `Cc1c(C(=O)CSc2ccccc2)[n+]([O-])c2ccccc2[n+]1[O-]`, for which the selectivity ratio in data set [2] stood at 32. The CC50 at 72 h in data set [3] worked out at 50 µg/mL (≈ 153 µM). The same molecule came in with an MIC in data set [1] of 1.56 µg/mL (≈ 4.78 µM).

In the case of `Cc1c(C(=O)CSCCN)[n+]([O-])c2ccccc2[n+]1[O-]`, in data set [1], the MIC was determined as 50 µg/mL (≈ 170 µM).

In turn, `Cc1c(C(=O)CN(C)Cc2ccccc2)[n+]([O-])c2ccccc2[n+]1[O-]` came in with an MIC in data set [1] of 50 µg/mL (≈ 148 µM).

For `NNC(=O)c1ccncc1` [ISONIAZID], in data set [1], 0.2 µg/mL (≈ 1.46 µM) was the least that counted as inhibitory (MIC).

As to `Cc1c(C(=O)CSCCNC(=O)c2ccc3ccccc3c2)[n+]([O-])c2ccccc2[n+]1[O-]`, in data set [2], the selectivity ratio was > 16. Besides, the CC50 at 72 h in data set [3] was > 100 µg/mL. Moreover, the MIC in data set [1] is 6.25 µg/mL (≈ 14 µM).

In data set [1], `CCN(CC)CC(=O)c1c(C)[n+]([O-])c2ccccc2[n+]1[O-]` registered an MIC of 50 µg/mL (≈ 173 µM).

In data set [1], `Cc1c(C(=O)CSCCO)[n+]([O-])c2ccccc2[n+]1[O-]` showed an MIC of 50 µg/mL (≈ 170 µM).

`Cc1ccc(N(C)CC(=O)c2c(C)[n+]([O-])c3ccccc3[n+]2[O-])cc1`: the MIC in data set [1] was 25 µg/mL (≈ 74.1 µM).

On to `Cc1c(C(=O)CN2CCCCC2)[n+]([O-])c2ccccc2[n+]1[O-]`, for which, in data set [1], the MIC is 25 µg/mL (≈ 83 µM).

Take `Cc1c(C(=O)CSCCNC(=O)c2ccccc2)[n+]([O-])c2ccccc2[n+]1[O-]`: the selectivity ratio in data set [2] is > 16. Besides, in data set [3], the CC50 at 72 h was > 100 µg/mL. For the same molecule, inhibition of growth in data set [1] (MIC) required 6.25 µg/mL (≈ 15.7 µM).

These data come from ChEMBL document CHEMBL3826937, “Synthesis, 3D-QSAR analysis and biological evaluation of quinoxaline 1,4-di-N-oxide derivatives as antituberculosis agents” (Bioorg Med Chem Lett, 2016).
